Columns and labels:
[1] = target: T1, human URAT1 (Homo sapiens, UniProt Q96S37); experiment: Test for inhibition of uric acid transport using human URAT1-expressing cells;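 also: three stars up to 0.2 µM two stars 0.2-2 µM one star 2-20 µM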; assay type: cell-based; conditions: HEK 293 cells expressing human URAT1; 14C-labeled uric acid 25 μM; uptake 37° C. for 5 min
T1 construct: Full-length cDNA of human URAT1 (hURAT1)
T1 sequence (Q96S37 1-553): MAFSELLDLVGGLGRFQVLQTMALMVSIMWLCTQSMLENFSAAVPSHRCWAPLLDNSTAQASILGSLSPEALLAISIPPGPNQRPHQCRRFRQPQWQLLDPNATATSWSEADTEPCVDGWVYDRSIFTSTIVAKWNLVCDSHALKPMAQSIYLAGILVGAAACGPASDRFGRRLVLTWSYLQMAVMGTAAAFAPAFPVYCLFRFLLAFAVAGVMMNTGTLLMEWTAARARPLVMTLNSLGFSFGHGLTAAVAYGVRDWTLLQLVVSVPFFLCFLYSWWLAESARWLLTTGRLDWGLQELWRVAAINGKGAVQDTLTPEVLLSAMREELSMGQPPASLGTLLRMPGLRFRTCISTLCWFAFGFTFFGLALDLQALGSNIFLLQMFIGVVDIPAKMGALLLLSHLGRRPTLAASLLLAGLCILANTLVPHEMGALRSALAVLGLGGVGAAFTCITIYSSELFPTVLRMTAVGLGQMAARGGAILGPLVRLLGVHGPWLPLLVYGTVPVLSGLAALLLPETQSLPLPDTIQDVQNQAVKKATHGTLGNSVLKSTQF
Method in brief: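 IC50 values reflect inhibition of ¹⁴C-uric acid uptake (25 μM final, 5 min, 37 °C) by compound. Cells were HEK293 stably expressing full-length human URAT1, preincubated in Na-gluconate-substituted HBSS. Radioactivity in lysates was expressed relative to DMSO control as 100%.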

[2] = tested on: Cebus apella; experiment: Test for drug efficacy in Cebus apella (uric acid excretion rate); assay type: in vivo; conditions: 3 mg/kg to 30 mg/kg in 0.5% methylcellulose into stomach via the nasal cavity, up to 24 hours
Procedure: A test compound (3 mg/kg to 30 mg/kg) prepared by suspending in a 0.5% methylcellulose solution was administered to Cebus apella into stomach via the nasal cavity using a disposable catheter and a syringe barrel. Blood samples were taken before administration and 30 minutes, 1 hour, 2 hours, 4 hours, 8 hours, 12 hours, and 24 hours after administration; and urine samples were collected for the time intervals of immediately to 4 hours after administration, from 4 hours to 8 hours after administration, from 8 hours to 16 hours after administration, and from 16 hours to 24 hours after administration. Concentrations of uric acid and creatinine in the blood and urine samples collected were measured by an automatic analyzer (JEOL Ltd.). Uric acid and creatine were measured using L-type Wako UA.F (Wako Pure Chemicals Industries, Ltd.) and L-type Creatine F (Wako Pure Chemicals Industries, Ltd.) respectively. Uric acid clearance was calculated from the uric acid concentrations in blood and urine and, similarly, creatinine clearance was calculated from the creatinine concentrations.

| SMILES | Inhibitory Activity (IC50 of uric acid transport inhibition) [1] | uricosuric effect (uric acid excretion rate) [2] |
| --- | --- | --- |
| O=C(O)c1c(C(F)(F)F)nc(-c2cccnc2)n1Cc1cc(Cl)ccc1Cl [Compound A19, 1-(2,5-dichlorobenzyl)-2-(pyridin-3-yl)-4-(trifluoromethyl)-1H-imidazole-5-carboxylic acid] | * * * | excellent uricosuric effect was confirmed |
| Cc1nc(-c2cccnc2)n(Cc2cccc3ccsc23)c1C(=O)O [Compound A81, 1-(benzo[b]thiophen-7-ylmethyl)-4-methyl-2-(pyridin-3-yl)-1H-imidazole-5-carboxylic acid] | * * | excellent uricosuric effect was confirmed |
| O=C(O)c1ccc(-c2cccnc2)n1Cc1cc(Cl)ccc1Cl [Compound B11, 1-(2,5-dichlorobenzyl)-2-(pyridin-3-yl)-1H-pyrrole-5-carboxylic acid] | * * * | excellent uricosuric effect was confirmed |
| O=C(O)c1ccc(-c2cccnc2)n1Cc1cccc2ccccc12 [Compound B1, 1-(naphthalen-1-ylmethyl)-2-(pyridin-3-yl)-1H-pyrrole-5-carboxylic acid] | * * * | excellent uricosuric effect was confirmed |
| O=C(O)c1c(C2CC2)nc(-c2cccnc2)n1Cc1cc(Cl)ccc1Cl [Compound A15, 4-cyclopropyl-1-(2,5-dichlorobenzyl)-2-(pyridin-3-yl)-1H-imidazole-5-carboxylic acid] | * * * | excellent uricosuric effect was confirmed |
| CC(C)c1nc(-c2cccnc2)n(Cc2cc(Cl)ccc2Cl)c1C(=O)O [Compound A26, 1-(2,5-dichlorobenzyl)-4-isopropyl-2-(pyridin-3-yl)-1H-imidazole-5-carboxylic acid] | * * * | excellent uricosuric effect was confirmed |
| Cc1ccc(C)c(Cn2c(-c3cccnc3)nc(C)c2C(=O)O)c1 [Compound A1, 1-(2,5-dimehylbenzyl)-4-methyl-2-(pyridin-3-yl)-1H-imidazole-5-carboxylic acid] | * * | excellent uricosuric effect was confirmed |
| Cc1nc(-c2cccnc2)n(Cc2csc3cccc(Cl)c23)c1C(=O)O [Compound A7, 1-((4-chlorobenzo[b]thiophen-3-yl)methyl)-4-methyl-2-(pyridin-3-yl)-1H-imidazole-5-carboxylic acid] | * * | excellent uricosuric effect was confirmed |
| Cc1nc(-c2cccnc2)n(Cc2cccc3ccccc23)c1C(=O)O [Compound A2, 4-methyl-1-(naphthalen-1-ylmethyl)-2-(pyridin-3-yl)-1H-imidazole-5-carboxylic acid] | * * | excellent uricosuric effect was confirmed |
| Cc1nc(-c2cncc(F)c2)n(Cc2cccc3ccccc23)c1C(=O)O [Compound A119, 2-(5-fluoropyridin-3-yl)-4-methyl-1-(naphthalen-1-ylmethyl)-1H-imidazole-5-carboxylic acid] | * * | excellent uricosuric effect was confirmed |
| CCOC(=O)c1c(C)nc(-c2cccnc2)n1Cc1cccc2ccccc12 [Compound A3, ethyl 4-methyl-1-(naphthalen-1-ylmethyl)-2-(pyridin-3-yl)-1H-imidazole-5-carboxylate] | * * |  |

Now from value to molecule, other results behind:

| Inhibitory Activity (IC50 of uric acid transport inhibition) [1] | SMILES | uricosuric effect (uric acid excretion rate) [2] |
| --- | --- | --- |
| * * * | Cc1nc(-c2cncc(F)c2)n(Cc2cc(Cl)ccc2Cl)c1C(=O)O [Compound A134, 1-(2,5-dichlorobenzyl)-2-(5-fluoropyridin-3-yl)-4-methyl-1H-imidazole-5-carboxylic acid] | excellent uricosuric effect was confirmed |
| * * * | Cc1nc(-c2cncc(Cl)c2)n(Cc2cccc3ccsc23)c1C(=O)O [Compound A233, 1-(benzo[b]thiophen-7-ylmethyl)-2-(5-chloropyridin-3-yl)-4-methyl-1H-imidazole-5-carboxylic acid] | excellent uricosuric effect was confirmed |
| * * * | Cc1nc(-c2cccnc2)n(Cc2cc(Cl)ccc2Cl)c1C(=O)O [Compound A13, 1-(2,5-dichlorobenzyl)-2-(pyridin-3-yl)-4-methyl-1H-imidazole-5-carboxylic acid] | excellent uricosuric effect was confirmed |
| * * * | Cc1nc(-c2cncc(Cl)c2)n(Cc2cc(Cl)ccc2Cl)c1C(=O)O [Compound A135, 2-(5-chloropyridin-3-yl)-1-(2,5-dichlorobenzyl)-4-methyl-1H-imidazole-5-carboxylic acid] | excellent uricosuric effect was confirmed |
| * * * | O=C(O)c1cnc(-c2cncc(Cl)c2)n1Cc1cc(Cl)ccc1Cl [Compound A169, 2-(5-chloropyridin-3-yl)-1-(2,5-dichlorobenzyl)-1H-imidazole-5-carboxylic acid] | excellent uricosuric effect was confirmed |
| * * * | Cc1cncc(-c2nc(C)c(C(=O)O)n2Cc2cc(Cl)ccc2Cl)c1 [Compound A156, 1-(2,5-dichlorobenzyl)-4-methyl-2-(5-methylpyridin-3-yl)-1H-imidazole-5-carboxylic acid] | excellent uricosuric effect was confirmed |
| * * * | O=C(O)c1c(C(F)(F)F)nc(-c2cncc(Cl)c2)n1Cc1cc(Cl)ccc1Cl [Compound A137, 2-(5-chloropyridin-3-yl)-1-(2,5-dichlorobenzyl)-4-(trifluoromethyl)-1H-imidazole-5-carboxylic acid] | excellent uricosuric effect was confirmed |
| * * | Cc1nc(-c2cncc(Cl)c2)n(Cc2cccc3ccccc23)c1C(=O)O [Compound A121, 2-(5-chloropyridin-3-yl)-4-methyl-1-(naphthalen-1-ylmethyl)-1H-imidazole-5-carboxylic acid] | excellent uricosuric effect was confirmed |
| * * * | O=C(O)c1c(C2CC2)nc(-c2cncc(Cl)c2)n1Cc1cc(Cl)ccc1Cl [Compound A147, 2-(5-chloropyridin-3-yl)-4-cyclopropyl-1-(2,5-dichlorobenzyl)-1H-imidazole-5-carboxylic acid] | excellent uricosuric effect was confirmed |
| * * * | CCc1nc(-c2cccnc2)n(Cc2cc(Cl)ccc2Cl)c1C(=O)O [Compound A14, 1-(2,5-dichlorobenzyl)-4-ethyl-2-(pyridin-3-yl)-1H-imidazole-5-carboxylic acid] | excellent uricosuric effect was confirmed |
| * * * | Cc1nc(-c2cncc(C(F)(F)F)c2)n(Cc2cc(Cl)ccc2Cl)c1C(=O)O [Compound A139, 1-(2,5-dichlorobenzyl)-4-methyl-2-(5-(trifluoromethyl)pyridin-3-yl)-1H-imidazole-5-carboxylic acid] | excellent uricosuric effect was confirmed |
